Measured values taken from US10173971B2, “Picolinamides with fungicidal activity” (DOW AGROSCIENCES LLC, priority 2014, dated 2019).
Where two headings read alike, the source gives them in different places.

Key:
Puccinia triticina = assay: Fungicidal activity: wheat brown rust (PUCCRT), wheat seedlings, booth sprayer to run-off or track spray; assay type: in vivo; details: for pest or weed control at 100 ppm: High-Volume Cereal Activity at 100 ppm; for pest or weed control at 121.5 g/ha: Low-Volume Cereal Activity at 121.5 g/H
Phakopsora pachyrhizi = assay: Fungicidal activity: Asian soybean rust (PHAKPA), soybean seedlings; details: 25 ppm, soybean plants (variety Williams 82); for Disease Control PHAKPA 1DP: 1 Day Protectant; for Disease Control PHAKPA 3DC: 3 Day Curative
Zymoseptoria tritici = assay: Fungicidal activity: leaf blotch of wheat (SEPTTR), wheat seedlings, booth sprayer to run-off or track spray; assay type: in vivo; details: for pest or weed control at 100 ppm: High-Volume Cereal Activity at 100 ppm; for pest or weed control at 121.5 g/ha: Low-Volume Cereal Activity at 121.5 g/H
[1] = 24 h, 1 Day Protectant, read-out: PUCCRT 1DP
[2] = 72 h, 3 Day Curative, read-out: PUCCRT 3DC
[3] = 3DC (Day Curative), read-out: PUCCRT 3DC
[4] = 24 h, 1 Day Protectant, read-out: SEPTTR 1DP
[5] = 72 h, 3 Day Curative, read-out: SEPTTR 3DC
[6] = 3DC (Day Curative), read-out: SEPTTR 3DC

For `CCCO[C@H](CC)[C@@H](Cc1ccccc1)[C@H](C)OC(=O)[C@H](C)NC(=O)c1nccc(OC)c1OCOC(C)=O` [compound 169], the pest or weed control at 100 ppm (Puccinia triticina; [1]) was 80 to 100%, the pest or weed control at 121.5 g/ha (Puccinia triticina; [1]) was 80 to 100% and the pest or weed control at 121.5 g/ha (Puccinia triticina; [2]) was 80 to 100%. For the same molecule, the pest or weed control at 100 ppm (Puccinia triticina; [3]) was 80 to 100%, the “Disease Control PHAKPA 1DP” value (Phakopsora pachyrhizi) was “A (80-100)” and the “Disease Control PHAKPA 3DC” value (Phakopsora pachyrhizi) was “B (More than 0-Less than 80)”. It also gave a pest or weed control at 100 ppm (Zymoseptoria tritici; [4]) of 80 to 100%, a pest or weed control at 121.5 g/ha (Zymoseptoria tritici; [4]) of 80 to 100% and a pest or weed control at 121.5 g/ha (Zymoseptoria tritici; [5]) of 80 to 100%. It also gave a pest or weed control at 100 ppm (Zymoseptoria tritici; [6]) of 80 to 100%.

`COc1ccnc(C(=O)N[C@@H](C)C(=O)O[C@@H](C)[C@H](Cc2ccccc2)C(C)(C)OCc2ccccc2)c1OCOC(C)=O` [compound 242] was tested, and the pest or weed control at 121.5 g/ha (Puccinia triticina; [1]) was 80 to 100%, the pest or weed control at 121.5 g/ha (Puccinia triticina; [2]) was 80 to 100% and the “Disease Control PHAKPA 1DP” value (Phakopsora pachyrhizi) was “B (More than 0-Less than 80)”. It also gave a pest or weed control at 121.5 g/ha (Zymoseptoria tritici; [4]) of 80 to 100% and a pest or weed control at 121.5 g/ha (Zymoseptoria tritici; [5]) of 80 to 100%.

`COc1ccnc(C(=O)N[C@@H](C)C(=O)O[C@@H](C)[C@@H](COCc2ccccc2)Cc2ccccc2)c1OCOC(C)=O` [compound 240] was tested, and the pest or weed control at 121.5 g/ha (Puccinia triticina; [1]) was 80 to 100%, the pest or weed control at 121.5 g/ha (Puccinia triticina; [2]) was 80 to 100% and the “Disease Control PHAKPA 1DP” value (Phakopsora pachyrhizi) was “A (80-100)”. For the same molecule, the “Disease Control PHAKPA 3DC” value (Phakopsora pachyrhizi) was “B (More than 0-Less than 80)”, the pest or weed control at 121.5 g/ha (Zymoseptoria tritici; [4]) was 0 to 80% and the pest or weed control at 121.5 g/ha (Zymoseptoria tritici; [5]) was 80 to 100%.

Work on `CCOCC(=O)OCOc1c(OC)ccnc1C(=O)N[C@@H](C)C(=O)O[C@@H](C)[C@H](Cc1ccccc1)C(C)(C)OCc1ccccc1` [compound 236] yielded a pest or weed control at 121.5 g/ha (Puccinia triticina; [1]) of 80 to 100%, a pest or weed control at 121.5 g/ha (Puccinia triticina; [2]) of 0 to 80% and a pest or weed control at 121.5 g/ha (Zymoseptoria tritici; [4]) of 80 to 100%. The pest or weed control at 121.5 g/ha (Zymoseptoria tritici; [5]) was 0 to 80%.

Work on `COc1ccnc(C(=O)N[C@@H](C)C(=O)OC(C)C(Cc2ccc(F)cc2)Cc2ccc(F)cc2)c1OC(C)=O` (stereo partly drawn) [compound 264] yielded a pest or weed control at 121.5 g/ha (Puccinia triticina; [1]) of 0 to 80% and a pest or weed control at 121.5 g/ha (Zymoseptoria tritici; [4]) of 0 to 80%.

`COc1ccnc(C(=O)N[C@@H](C)C(=O)O[C@@H](C)[C@@H](COCc2ccc(F)cc2)Cc2ccc(F)cc2)c1OCOC(C)=O` [compound 249] gave a pest or weed control at 121.5 g/ha (Puccinia triticina; [1]) of 80 to 100%, a pest or weed control at 121.5 g/ha (Puccinia triticina; [2]) of 0 to 80% and a pest or weed control at 121.5 g/ha (Zymoseptoria tritici; [4]) of 80 to 100%. The pest or weed control at 121.5 g/ha (Zymoseptoria tritici; [5]) was 0 to 80%.

Molecule `CC[C@@H](Oc1ccccc1)[C@@H](Cc1ccccc1)[C@H](C)OC(=O)[C@H](C)NC(=O)c1nccc(OC)c1O` [compound 118] has a pest or weed control at 100 ppm (Puccinia triticina; [1]) of 0 to 80%, a pest or weed control at 100 ppm (Puccinia triticina; [3]) of 80 to 100% and a pest or weed control at 100 ppm (Zymoseptoria tritici; [4]) of 80 to 100%. It also gave a pest or weed control at 100 ppm (Zymoseptoria tritici; [6]) of 0 to 80%.

`COc1ccc(C[C@H](COCC2CC2)[C@H](C)OC(=O)[C@H](C)NC(=O)c2nccc(OC)c2OCOC(C)=O)cc1` [compound 280] showed a pest or weed control at 121.5 g/ha (Puccinia triticina; [1]) of 80 to 100%, a pest or weed control at 121.5 g/ha (Puccinia triticina; [2]) of 80 to 100% and a pest or weed control at 121.5 g/ha (Zymoseptoria tritici; [4]) of 0 to 80%. For the same molecule, the pest or weed control at 121.5 g/ha (Zymoseptoria tritici; [5]) was 80 to 100%.

Molecule `CCCOC[C@@H](Cc1ccccc1)[C@H](C)OC(=O)[C@H](C)NC(=O)c1nccc(OC)c1O` [compound 93] has a pest or weed control at 100 ppm (Puccinia triticina; [1]) of 80 to 100%, a pest or weed control at 100 ppm (Puccinia triticina; [3]) of 80 to 100% and a pest or weed control at 100 ppm (Zymoseptoria tritici; [4]) of 0 to 80%. It also gave a pest or weed control at 100 ppm (Zymoseptoria tritici; [6]) of 80 to 100%.

With `CCCOC[C@@H](Cc1ccccc1)[C@H](C)OC(=O)C(COC)NC(=O)c1nccc(OC)c1O` (stereo partly drawn) [compound 106] the pest or weed control at 100 ppm (Puccinia triticina; [1]) was 0 to 80%, the pest or weed control at 100 ppm (Puccinia triticina; [3]) was 0 to 80% and the pest or weed control at 100 ppm (Zymoseptoria tritici; [6]) was 0 to 80%.

`COc1ccnc(C(=O)N[C@@H](C)C(=O)O[C@@H](C)[C@H](Cc2ccc(Cl)c(Cl)c2)c2ccccc2)c1OCOC(C)=O` [compound 218] gave a pest or weed control at 121.5 g/ha (Puccinia triticina; [1]) of 0 to 80%, a pest or weed control at 121.5 g/ha (Puccinia triticina; [2]) of 0 to 80% and a pest or weed control at 121.5 g/ha (Zymoseptoria tritici; [4]) of 80 to 100%. It also gave a pest or weed control at 121.5 g/ha (Zymoseptoria tritici; [5]) of 0 to 80%.

For `COc1ccnc(C(=O)N[C@@H](C)C(=O)O[C@@H](C)[C@H](Cc2ccc3ccccc3c2)c2ccccc2)c1OC(C)=O` [compound 224], the pest or weed control at 121.5 g/ha (Puccinia triticina; [1]) was 0 to 80%, the pest or weed control at 121.5 g/ha (Zymoseptoria tritici; [4]) was 0 to 80% and the pest or weed control at 121.5 g/ha (Zymoseptoria tritici; [5]) was 0 to 80%.

Molecule `CC[C@H](Oc1ccccc1)[C@@H](Cc1ccccc1)[C@H](C)OC(=O)[C@H](C)NC(=O)c1nccc(OC)c1OCOC(C)=O` [compound 191] has a pest or weed control at 121.5 g/ha (Puccinia triticina; [1]) of 80 to 100%, a pest or weed control at 121.5 g/ha (Puccinia triticina; [2]) of 80 to 100% and a pest or weed control at 121.5 g/ha (Zymoseptoria tritici; [4]) of 80 to 100%. It also gave a pest or weed control at 121.5 g/ha (Zymoseptoria tritici; [5]) of 80 to 100%.
